Source: the kinase profiling compilation of Christmann-Franck et al. (2016)
“And” between values parts separate entries of the source, which are not always exact repeats. Equal entries are not always repeated.

Key:
Test in all cases: radiometric filter-binding kinase assay
[1] = target: CAMKK2 (human) (UniProt Q96RR4); settings: compound 10.0 µM
[2] = target: CDK2 CCNA2 (human) (UniProt P20248+P24941); settings: compound 10.0 µM
[3] = target: EEF2K (human) (UniProt O00418); settings: compound 10.0 µM
[4] = target: EPHB2 (human) (UniProt P29323); settings: compound 10.0 µM
[5] = target: INSR (human) (UniProt P06213)
INSR (human), sequence (P06213 whole entry, looked up): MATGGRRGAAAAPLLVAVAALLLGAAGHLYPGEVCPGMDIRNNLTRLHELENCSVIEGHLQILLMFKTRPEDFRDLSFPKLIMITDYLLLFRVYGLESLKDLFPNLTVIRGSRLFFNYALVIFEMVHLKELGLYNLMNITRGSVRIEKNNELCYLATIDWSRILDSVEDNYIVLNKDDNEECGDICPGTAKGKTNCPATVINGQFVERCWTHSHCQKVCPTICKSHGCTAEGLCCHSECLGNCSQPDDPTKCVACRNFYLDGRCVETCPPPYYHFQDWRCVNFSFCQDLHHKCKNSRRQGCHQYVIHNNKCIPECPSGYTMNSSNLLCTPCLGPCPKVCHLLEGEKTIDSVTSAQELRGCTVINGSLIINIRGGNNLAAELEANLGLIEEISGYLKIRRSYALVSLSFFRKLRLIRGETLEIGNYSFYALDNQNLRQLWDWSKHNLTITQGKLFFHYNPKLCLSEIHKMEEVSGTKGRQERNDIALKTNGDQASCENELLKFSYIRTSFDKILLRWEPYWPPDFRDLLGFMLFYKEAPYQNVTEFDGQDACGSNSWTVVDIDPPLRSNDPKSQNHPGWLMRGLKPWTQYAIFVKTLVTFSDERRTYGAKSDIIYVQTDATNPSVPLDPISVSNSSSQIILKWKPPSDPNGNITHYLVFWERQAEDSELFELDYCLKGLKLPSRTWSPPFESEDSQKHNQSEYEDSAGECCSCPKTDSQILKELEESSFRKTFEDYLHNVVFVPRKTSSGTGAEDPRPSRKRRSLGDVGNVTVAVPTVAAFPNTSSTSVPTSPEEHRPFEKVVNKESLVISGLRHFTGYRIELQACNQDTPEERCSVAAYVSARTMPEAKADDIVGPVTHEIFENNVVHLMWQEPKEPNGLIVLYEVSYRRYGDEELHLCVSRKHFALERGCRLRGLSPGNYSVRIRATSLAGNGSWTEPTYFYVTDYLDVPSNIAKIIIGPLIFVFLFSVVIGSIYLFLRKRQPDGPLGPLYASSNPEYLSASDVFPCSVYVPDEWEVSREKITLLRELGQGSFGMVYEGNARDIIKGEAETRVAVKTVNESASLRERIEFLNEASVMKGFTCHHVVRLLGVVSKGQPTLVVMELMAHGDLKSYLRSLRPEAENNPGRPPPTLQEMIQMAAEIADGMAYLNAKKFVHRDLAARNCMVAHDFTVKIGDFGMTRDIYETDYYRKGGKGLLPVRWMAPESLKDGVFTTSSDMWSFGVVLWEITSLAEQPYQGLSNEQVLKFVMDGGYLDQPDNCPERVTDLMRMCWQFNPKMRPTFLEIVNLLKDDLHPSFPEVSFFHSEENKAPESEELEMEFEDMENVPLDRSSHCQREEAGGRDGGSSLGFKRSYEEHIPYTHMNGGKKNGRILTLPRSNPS

[6] = target: MAP3K5 (human) (UniProt Q99683); settings: compound 10.0 µM
[7] = test system: LCK (mouse); settings: compound 10.0 µM; accession and sequence are those of the human protein
[8] = target: EPHA2 (human) (UniProt P29317); settings: compound 10.0 µM
[9] = target: STK11 CAB39 STRADA (human) (UniProt Q9Y376+Q7RTN6+Q15831); settings: compound 10.0 µM
[10] = target: MAP3K11 (human) (UniProt Q16584)
MAP3K11 (human), sequence (Q16584 whole entry, looked up): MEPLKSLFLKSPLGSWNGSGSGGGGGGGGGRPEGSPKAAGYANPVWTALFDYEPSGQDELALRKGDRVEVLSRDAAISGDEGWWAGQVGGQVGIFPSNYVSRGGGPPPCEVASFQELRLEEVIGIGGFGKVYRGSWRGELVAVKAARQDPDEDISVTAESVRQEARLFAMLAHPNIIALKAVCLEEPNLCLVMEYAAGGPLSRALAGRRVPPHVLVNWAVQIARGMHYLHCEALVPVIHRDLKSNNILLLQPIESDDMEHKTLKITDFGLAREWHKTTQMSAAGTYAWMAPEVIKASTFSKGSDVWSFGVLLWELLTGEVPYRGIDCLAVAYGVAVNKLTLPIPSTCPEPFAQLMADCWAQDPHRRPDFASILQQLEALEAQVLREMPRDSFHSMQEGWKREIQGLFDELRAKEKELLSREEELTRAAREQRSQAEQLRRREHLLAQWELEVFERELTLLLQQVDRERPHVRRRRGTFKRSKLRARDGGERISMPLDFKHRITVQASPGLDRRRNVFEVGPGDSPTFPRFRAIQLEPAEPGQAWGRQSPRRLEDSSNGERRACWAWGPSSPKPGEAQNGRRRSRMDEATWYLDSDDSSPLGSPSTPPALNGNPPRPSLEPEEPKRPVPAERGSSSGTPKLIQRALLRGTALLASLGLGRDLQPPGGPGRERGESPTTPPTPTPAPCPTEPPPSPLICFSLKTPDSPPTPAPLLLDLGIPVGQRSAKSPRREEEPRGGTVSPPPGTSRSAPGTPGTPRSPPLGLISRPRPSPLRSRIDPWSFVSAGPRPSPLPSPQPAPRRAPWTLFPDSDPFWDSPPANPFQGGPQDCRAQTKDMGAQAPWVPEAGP

[11] = target: PAK7 (human) (UniProt Q9P286); settings: compound 10.0 µM
[12] = target: MKNK1 (human) (UniProt Q9BUB5); settings: compound 10.0 µM
[13] = target: MAPK12 (human) (UniProt P53778)
[14] = target: BRSK1 (human) (UniProt Q8TDC3); settings: compound 10.0 µM
[15] = target: FGFR1 (human) (UniProt P11362)
[16] = test system: AKT2 (human), P31751 [S474D]
[17] = target: MARK1 (human) (UniProt Q9P0L2); settings: compound 10.0 µM
[18] = target: CSNK2A1 (human) (UniProt P68400); settings: compound 10.0 µM
[19] = target: MAP2K6 (human) (UniProt P52564); settings: compound 10.0 µM
[20] = target: IKBKB (human) (UniProt O14920); settings: compound 10.0 µM
[21] = target: EPHB1 (human) (UniProt P54762); settings: compound 10.0 µM
[22] = target: INSRR (human) (UniProt P14616)
INSRR (human), sequence (P14616 whole entry, looked up): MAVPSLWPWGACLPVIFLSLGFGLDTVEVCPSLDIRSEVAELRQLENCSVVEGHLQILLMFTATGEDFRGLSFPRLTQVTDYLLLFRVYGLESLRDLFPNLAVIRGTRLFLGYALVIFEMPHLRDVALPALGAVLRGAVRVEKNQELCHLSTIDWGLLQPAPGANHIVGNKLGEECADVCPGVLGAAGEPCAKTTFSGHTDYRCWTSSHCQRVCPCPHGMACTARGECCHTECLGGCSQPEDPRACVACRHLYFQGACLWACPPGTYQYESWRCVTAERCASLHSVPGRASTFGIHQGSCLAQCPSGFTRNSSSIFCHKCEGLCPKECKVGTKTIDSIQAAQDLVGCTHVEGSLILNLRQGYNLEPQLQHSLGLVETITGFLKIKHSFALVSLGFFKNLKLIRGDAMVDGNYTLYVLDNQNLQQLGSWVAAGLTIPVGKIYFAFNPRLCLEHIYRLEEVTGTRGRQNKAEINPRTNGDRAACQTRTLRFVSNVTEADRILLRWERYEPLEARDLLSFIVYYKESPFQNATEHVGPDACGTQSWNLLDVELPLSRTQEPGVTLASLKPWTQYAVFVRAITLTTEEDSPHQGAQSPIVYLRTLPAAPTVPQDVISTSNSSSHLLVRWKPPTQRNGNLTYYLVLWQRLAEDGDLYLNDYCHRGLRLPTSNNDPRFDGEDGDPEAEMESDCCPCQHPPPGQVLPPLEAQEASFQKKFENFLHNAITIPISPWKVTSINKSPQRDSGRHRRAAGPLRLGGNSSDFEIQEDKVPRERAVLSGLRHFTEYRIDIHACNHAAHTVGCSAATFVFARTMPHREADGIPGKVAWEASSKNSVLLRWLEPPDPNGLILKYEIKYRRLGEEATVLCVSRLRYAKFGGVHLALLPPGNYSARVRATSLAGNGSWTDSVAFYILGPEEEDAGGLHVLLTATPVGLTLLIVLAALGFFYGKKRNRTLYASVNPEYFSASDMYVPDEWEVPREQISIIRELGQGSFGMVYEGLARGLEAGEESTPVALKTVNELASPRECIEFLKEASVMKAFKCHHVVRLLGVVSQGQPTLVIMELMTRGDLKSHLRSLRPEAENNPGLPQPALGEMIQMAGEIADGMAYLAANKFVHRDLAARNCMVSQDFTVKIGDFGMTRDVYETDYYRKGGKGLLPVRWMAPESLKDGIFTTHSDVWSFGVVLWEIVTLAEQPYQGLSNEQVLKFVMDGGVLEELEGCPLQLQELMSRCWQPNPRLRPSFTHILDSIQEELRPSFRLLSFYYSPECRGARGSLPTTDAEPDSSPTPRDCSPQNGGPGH

[23] = target: NTRK1 (human) (UniProt P04629); settings: compound 10.0 µM
[24] = target: DAPK1 (human) (UniProt P53355); settings: compound 10.0 µM
[25] = test system: AKT1 (human), P31749 [S473D]; settings: compound 10.0 µM
[26] = target: MELK (human) (UniProt Q14680); settings: compound 10.0 µM
[27] = target: PRKCA (human) (UniProt P17252); settings: compound 10.0 µM
[28] = target: PAK6 (human) (UniProt Q9NQU5); settings: compound 10.0 µM
[29] = target: RIPK2 (human) (UniProt O43353)
RIPK2 (human), sequence (O43353 whole entry, looked up): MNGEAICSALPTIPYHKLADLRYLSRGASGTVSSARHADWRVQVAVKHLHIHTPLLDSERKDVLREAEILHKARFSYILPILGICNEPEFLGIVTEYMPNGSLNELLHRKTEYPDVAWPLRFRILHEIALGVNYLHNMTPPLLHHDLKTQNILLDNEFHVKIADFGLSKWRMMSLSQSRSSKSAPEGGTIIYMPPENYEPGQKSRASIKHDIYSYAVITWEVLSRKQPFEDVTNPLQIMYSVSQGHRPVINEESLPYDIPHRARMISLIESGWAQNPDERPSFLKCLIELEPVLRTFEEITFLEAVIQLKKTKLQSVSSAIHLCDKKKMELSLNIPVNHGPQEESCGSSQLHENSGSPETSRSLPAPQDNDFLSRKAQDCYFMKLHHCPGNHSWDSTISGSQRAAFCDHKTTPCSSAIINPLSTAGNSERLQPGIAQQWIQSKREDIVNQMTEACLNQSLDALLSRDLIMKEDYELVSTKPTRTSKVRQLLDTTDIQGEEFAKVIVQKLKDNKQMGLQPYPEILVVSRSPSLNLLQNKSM

[30] = target: PDPK1 (human) (UniProt O15530); settings: compound 10.0 µM
PDPK1 (human), sequence (O15530 whole entry, looked up): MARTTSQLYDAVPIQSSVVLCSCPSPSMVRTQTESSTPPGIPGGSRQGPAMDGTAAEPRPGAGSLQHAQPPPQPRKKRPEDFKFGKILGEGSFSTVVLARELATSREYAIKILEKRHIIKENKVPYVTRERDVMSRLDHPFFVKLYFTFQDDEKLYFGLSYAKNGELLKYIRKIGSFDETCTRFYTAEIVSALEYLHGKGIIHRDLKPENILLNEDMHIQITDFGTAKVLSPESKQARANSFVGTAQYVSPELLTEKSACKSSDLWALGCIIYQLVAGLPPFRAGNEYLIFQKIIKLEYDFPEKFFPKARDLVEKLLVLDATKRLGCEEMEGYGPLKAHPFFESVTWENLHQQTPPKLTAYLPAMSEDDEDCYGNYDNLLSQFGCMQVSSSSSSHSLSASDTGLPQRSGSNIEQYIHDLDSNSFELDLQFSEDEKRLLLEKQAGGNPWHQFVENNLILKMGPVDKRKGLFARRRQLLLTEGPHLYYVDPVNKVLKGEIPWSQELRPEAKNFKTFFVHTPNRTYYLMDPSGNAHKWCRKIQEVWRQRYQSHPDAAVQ

[31] = target: MAPK8 (human) (UniProt P45983)
MAPK8 (human), sequence (P45983 whole entry, looked up): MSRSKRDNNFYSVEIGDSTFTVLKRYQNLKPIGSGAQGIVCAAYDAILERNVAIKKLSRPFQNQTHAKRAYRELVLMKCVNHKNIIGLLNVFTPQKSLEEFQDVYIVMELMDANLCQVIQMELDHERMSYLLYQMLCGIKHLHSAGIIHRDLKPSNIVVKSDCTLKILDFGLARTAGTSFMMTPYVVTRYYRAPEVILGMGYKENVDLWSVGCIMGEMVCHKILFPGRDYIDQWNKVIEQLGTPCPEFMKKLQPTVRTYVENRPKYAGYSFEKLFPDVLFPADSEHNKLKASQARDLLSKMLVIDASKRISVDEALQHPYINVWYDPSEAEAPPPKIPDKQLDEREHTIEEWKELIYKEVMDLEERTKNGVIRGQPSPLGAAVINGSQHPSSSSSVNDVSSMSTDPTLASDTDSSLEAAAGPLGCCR

[32] = target: TAOK1 (human) (UniProt Q7L7X3); settings: compound 10.0 µM
[33] = target: MARK4 (human) (UniProt Q96L34); settings: compound 10.0 µM
[34] = target: MAP2K2 (human) (UniProt P36507); settings: compound 10.0 µM
[35] = target: GCK (human) (UniProt Q12851); settings: compound 10.0 µM

For `Cc1nc(N)sc1-c1csc(Nc2cccnc2)n1`, the residual activity [1] was 62%, the residual activity [2] was 63% and the residual activity [3] was 77%. The residual activity [4] was 93%, the residual activity ([5]; compound 10.0 µM) was 34% and the residual activity ([5]; compound 100.0 µM) was 69%. The residual activity [6] was 96%, the residual activity [7] was 94% and the residual activity [8] was 103%. For the same molecule, the residual activity [9] was 64%, the residual activity ([10]; compound 10.0 µM) was 47% and the residual activity ([10]; compound 100.0 µM) was 9%. For the same molecule, the residual activity [11] was 103%, the residual activity [12] was 35% and the residual activity ([13]; compound 10.0 µM) was 15%. The residual activity ([13]; compound 100.0 µM) was 9%, the residual activity [14] was 80% and the residual activity ([15]; compound 10.0 µM) was 47%. For the same molecule, the residual activity ([15]; compound 100.0 µM) was 23%, the residual activity ([16]; compound 10.0 µM) was 3% and the residual activity ([16]; compound 100.0 µM) was 7%. The residual activity [17] was 82%, the residual activity [18] was 63% and the residual activity [19] was 94%. The residual activity [20] was 56%, the residual activity [21] was 93% and the residual activity ([22]; compound 10.0 µM) was 40%. For the same molecule, the residual activity ([22]; compound 100.0 µM) was 22%, the residual activity [23] was 73% and the residual activity [24] was 71%. The residual activity [25] was 91%, the residual activity [26] was 73% and the residual activity [27] was 67%. It also gave a residual activity [28] of 84%, a residual activity ([29]; compound 10.0 µM) of 52% and a residual activity ([29]; compound 100.0 µM) of 23%. For the same molecule, the residual activity [30] was 84% and 86%, the residual activity ([31]; compound 10.0 µM) was 81% and the residual activity ([31]; compound 100.0 µM) was 49%. For the same molecule, the residual activity [32] was 89%, the residual activity [33] was 83% and the residual activity [34] was 87%. For the same molecule, the residual activity [35] was 63%.
